US20240148821A1, “PHARMACEUTICAL USE OF CYCLIC PEPTIDE COMPOUND” (CHUGAI SEIYAKU KABUSHIKI KAISHA, priority 2021, published 2024)
Bridge positions count the residues as written; N and C are the ends. Square brackets hold non-standard residues; d marks the D form. Peptide text beside a SMILES is read from it. * marks the point of attachment. hPhe(3-Cl-4-CF3) = N[C@@H](CCc1ccc(C(F)(F)F)c(Cl)c1)C(=O)O; NMeGly(cPent) = CN[C@H](C(=O)O)C1CCCC1; Phe(3-I) = N[C@@H](Cc1cccc(I)c1)C(=O)O; NMeY = CN[C@@H](Cc1ccc(O)cc1)C(=O)O; NMeCha = CN[C@@H](CC1CCCCC1)C(=O)O; cisHyp = O=C(O)[C@@H]1C[C@H](O)CN1; Hyp = O=C(O)[C@@H]1C[C@@H](O)CN1; NMeChg = CN[C@H](C(=O)O)C1CCCCC1; NMeE = CN[C@@H](CCC(=O)O)C(=O)O; NMeD = CN[C@@H](CC(=O)O)C(=O)O; NMeL = CN[C@@H](CC(C)C)C(=O)O; Morpholide = C1CN(*)CCO1; NMeA = CN[C@@H](C)C(=O)O; Nle = CCCC[C@H](N)C(=O)O; Piperidide = C1CCN(*)CC1; Ac5c = NC1(C(=O)O)CCCC1; Aze = O=C(O)[C@@H]1CCN1; Ethyl(2,2-F2) = FC(F)C*; Ethyl(2-OH) = OCC*; X14 = c1cc(C*)cs1; X9 = c1cncc(C*)c1; Sar = CNCC(=O)O

What follows are compounds tested against protein-protein interaction between Kras and SOS1 (biotin-tagged human Kras loaded with GDP, His-tagged human SOS1) (Homo sapiens (Human), UniProt P01116, G12D) (assay: Protein-protein interaction inhibition between Kras and SOS1 (KrasG12D-SOS PPI) using AlphaScreen). Conditions: not given.
Type: biochemical

Row | IC50 | SMILES
1 | 1.8 nM | CC[C@H](C)[C@@H]1NC(=O)[C@H](CC(C)C)N(C)C(=O)C[C@@H](C(=O)N(C)C)N(C)C(=O)[C@H](C2CCCC2)N(C)C(=O)C2(CCCC2)NC(=O)[C@H](CC(=O)N2CCOCC2)N(C)C(=O)[C@H](CCc2ccc(C(F)(F)F)c(Cl)c2)NC(=O)CN(C)C(=O)[C@H](CC2CCCCC2)N(C)C(=O)[C@@H]2CCN2C(=O)[C@H](C)N(C)C1=O [Compound 2109] ([NMeL]I[NMeA][Aze][NMeCha][Sar][hPhe(3-Cl-4-CF3)][NMeD](Morpholide)[Ac5c][NMeGly(cPent)][NMeD]-NMe2; lactam N-11)

Same assay, conditions: AlphaScreen; biotin-tagged human Kras loaded with GDP, His-tagged human SOS1; read-out: KRAS G12D-SOS PPI IC50

Row | SMILES | IC50
2 | CC[C@H](C)[C@@H]1NC(=O)[C@H](CC(C)C)N(C)C(=O)C[C@@H](C(=O)N2CCOCC2)N(C)C(=O)[C@H](C2CCCC2)N(C)C(=O)C2(CCCC2)NC(=O)[C@H](CCC(=O)N2CCOCC2)N(C)C(=O)[C@H](CCc2ccc(C(F)(F)F)c(Cl)c2)NC(=O)CN(C)C(=O)[C@H](CC2CCCCC2)N(C)C(=O)[C@@H]2CCN2C(=O)[C@H](C)N(C)C1=O [Compound 2107] ([NMeL]I[NMeA][Aze][NMeCha][Sar][hPhe(3-Cl-4-CF3)][NMeE](Morpholide)[Ac5c][NMeGly(cPent)][NMeD]-Morpholide; lactam N-11) | 4.8 nM
3 | CC[C@H](C)[C@@H]1NC(=O)[C@H](CC(C)C)N(C)C(=O)C[C@@H](C(=O)N2CCOCC2)N(C)C(=O)[C@H](C2CCCC2)N(C)C(=O)C2(CCCC2)NC(=O)[C@H](CCC(=O)N(C)C)N(C)C(=O)[C@H](CCc2ccc(C(F)(F)F)c(Cl)c2)NC(=O)CN(C)C(=O)[C@H](CC2CCCCC2)N(C)C(=O)[C@@H]2CCN2C(=O)[C@H](C)N(C)C1=O [Compound 2108, 3-[(3S,6S,9S,13S,16S,22S,25S,31S,34S)-25-[2-[3-chloro-4-(trifluoromethyl)phenyl]ethyl]-31-(cyclohexylmethyl)-16-cyclopentyl-9-isobutyl-3,4,10,14,17,23,29,32-octamethyl-6-[(1S)-1-methylpropyl]-13-(morpholine-4-carbonyl)-2,5,8,11,15,18,21,24,27,30,33-undecaoxo-spiro[1,4,7,10,14,17,20,23,26,29,32-undecazabicyclo[32.2.0]hexatriacontane-19,1′-cyclopentane]-22-yl]-N,N-dimethyl-propanamide] ([NMeL]I[NMeA][Aze][NMeCha][Sar][hPhe(3-Cl-4-CF3)][NMeE](NMe2)[Ac5c][NMeGly(cPent)][NMeD]-Morpholide; lactam N-11) | 7.9 nM
4 | CCCC[C@@H]1NC(=O)[C@H](Cc2cccc(I)c2)NC(=O)CN(C)C(=O)[C@H](Cc2ccc(OC)cc2)N(C)C(=O)[C@@H]2CCN2C(=O)[C@H](C)N(C)C(=O)[C@H]([C@@H](C)CC)NC(=O)[C@H](CC(C)C)N(C)C(=O)C[C@@H](C(=O)N2CCCCC2)N(C)C(=O)[C@H](CC(C)C)NC(=O)[C@H](CCC(=O)N(C)C)N(C)C1=O [Compound 2110, 3-[(3S,6S,9S,13S,16S,19S,22S,25S,31S,34S)-22-butyl-25-[(3-iodophenyl)methyl]-9,16-diisobutyl-31-[(4-methoxyphenyl)methyl]-3,4,10,14,20,29,32-heptamethyl-6-[(1S)-1-methylpropyl]-2,5,8,11,15,18,21,24,27,30,33-undecaoxo-13-(piperidine-1-carbonyl)-1,4,7,10,14,17,20,23,26,29,32-undecazabicyclo[32.2.0]hexatriacontan-19-yl]-N,N-dimethyl-propanamide] ([NMeL]I[NMeA][Aze][NMeY](Me)[Sar][Phe(3-I)][Nle][NMeE](NMe2)L[NMeD]-Piperidide; lactam N-11) | 9.8 nM
5 | CC[C@H](C)[C@@H]1NC(=O)[C@H](CC(C)C)N(C)C(=O)C[C@@H](C(=O)N2CCOCC2)N(C)C(=O)[C@H](C2CCCC2)N(C)C(=O)C2(CCCC2)NC(=O)[C@H](CCC(=O)N2CCCCC2)N(C)C(=O)[C@H](CCc2ccc(C(F)(F)F)c(Cl)c2)NC(=O)CN(C)C(=O)[C@H](CC2CCCCC2)N(C)C(=O)[C@@H]2CCN2C(=O)[C@H](C)N(C)C1=O [Compound 2112] ([NMeL]I[NMeA][Aze][NMeCha][Sar][hPhe(3-Cl-4-CF3)][NMeE](Piperidide)[Ac5c][NMeGly(cPent)][NMeD]-Morpholide; lactam N-11) | 11 nM
6 | CC[C@H](C)[C@@H]1NC(=O)[C@H](CC(C)C)N(C)C(=O)C[C@@H](C(=O)N2CCCCC2)N(C)C(=O)[C@H](CC(C)C)NC(=O)C(C)(C)N(C)C(=O)[C@H](COc2ccccc2)NC(=O)[C@H](Cc2cccc(I)c2)NC(=O)CN(C)C(=O)[C@H](Cc2ccc(C)cc2)N(C)C(=O)[C@@H]2CCN2C(=O)CN(C)C1=O [Compound 2114, (6S,9S,13S,16S,22S,25S,31S,34S)-25-[(3-iodophenyl)methyl]-9,16-diisobutyl-4,10,14,19,19,20,29,32-octamethyl-6-[(1S)-1-methylpropyl]-22-(phenoxymethyl)-13-(piperidine-1-carbonyl)-31-(p-tolylmethyl)-1,4,7,10,14,17,20,23,26,29,32-undecazabicyclo[32.2.0]hexatriacontane-2,5,8,11,15,18,21,24,27,30,33-undecone] | 110 nM
7 | CC[C@H](C)[C@@H]1NC(=O)[C@H](CC(C)C)N(C)C(=O)C[C@@H](C(=O)N2CCCCC2)N(C)C(=O)[C@H](C2CCCCC2)N(C)C(=O)C2(CCCC2)NC(=O)[C@@H]2C[C@H](OCCO)CN2C(=O)[C@H](CCc2ccc(C(F)(F)F)c(Cl)c2)NC(=O)CN(C)C(=O)[C@H](CC2CCCCC2)N(C)C(=O)CN(C)C(=O)CN(C)C1=O [Compound 2117, (3S,9S,18S,21S,25S,28S,34S,36S)-3-[2-[3-chloro-4-(trifluoromethyl)phenyl]ethyl]-28-cyclohexyl-9-(cyclohexylmethyl)-36-(2-hydroxyethoxy)-21-isobutyl-7,10,13,16,22,26,29-heptamethyl-18-[(1S)-1-methylpropyl]-25-(piperidine-1-carbonyl)spiro[1,4,7,10,13,16,19,22,26,29,32-undecazabicyclo[32.3.0]heptatriacontane-31,1′-cyclopentane]-2,5,8,11,14,17,20,23,27,30,33-undecone] ([NMeL]I[Sar][Sar][NMeCha][Sar][hPhe(3-Cl-4-CF3)][cisHyp](Ethyl(2-OH))[Ac5c][NMeChg][NMeD]-Piperidide; lactam N-11) | 0.41 nM
8 | CC[C@H](C)[C@@H]1NC(=O)[C@H](CC(C)C)N(C)C(=O)C[C@@H](C(=O)N2CCCCC2)N(C)C(=O)[C@H](C2CCCCC2)N(C)C(=O)C2(CCCC2)NC(=O)[C@@H]2C[C@@H](OCC(F)F)CN2C(=O)[C@H](CCc2ccc(C(F)(F)F)c(Cl)c2)NC(=O)CN(C)C(=O)[C@H](CC2CCCCC2)N(C)C(=O)CN(C)C(=O)CN(C)C1=O [Compound 2119] ([NMeL]I[Sar][Sar][NMeCha][Sar][hPhe(3-Cl-4-CF3)][Hyp](Ethyl(2,2-F2))[Ac5c][NMeChg][NMeD]-Piperidide; lactam N-11) | 0.39 nM
9 | CC[C@H](C)[C@@H]1NC(=O)[C@H](CC(C)C)N(C)C(=O)C[C@@H](C(=O)N2CCCCC2)N(C)C(=O)[C@H](C2CCCCC2)N(C)C(=O)C2(CCCC2)NC(=O)[C@@H]2C[C@H](OCc3cccnc3)CN2C(=O)[C@H](CCc2ccc(C(F)(F)F)c(Cl)c2)NC(=O)CN(C)C(=O)[C@H](CC2CCCCC2)N(C)C(=O)CN(C)C(=O)CN(C)C1=O [Compound 2120] ([NMeL]I[Sar][Sar][NMeCha][Sar][hPhe(3-Cl-4-CF3)][cisHyp](X9)[Ac5c][NMeChg][NMeD]-Piperidide; lactam N-11) | 1 nM
10 | CC[C@H](C)[C@@H]1NC(=O)[C@H](CC(C)C)N(C)C(=O)C[C@@H](C(=O)N2CCCCC2)N(C)C(=O)[C@H](C2CCCCC2)N(C)C(=O)C2(CCCC2)NC(=O)[C@@H]2C[C@@H](OCc3cccnc3)CN2C(=O)[C@H](CCc2ccc(C(F)(F)F)c(Cl)c2)NC(=O)CN(C)C(=O)[C@H](CC2CCCCC2)N(C)C(=O)CN(C)C(=O)CN(C)C1=O [Compound 2121] ([NMeL]I[Sar][Sar][NMeCha][Sar][hPhe(3-Cl-4-CF3)][Hyp](X9)[Ac5c][NMeChg][NMeD]-Piperidide; lactam N-11) | 0.56 nM
11 | CC[C@H](C)[C@@H]1NC(=O)[C@H](CC(C)C)N(C)C(=O)C[C@@H](C(=O)N2CCCCC2)N(C)C(=O)[C@H](C2CCCCC2)N(C)C(=O)C2(CCCC2)NC(=O)[C@@H]2C[C@@H](OCCO)CN2C(=O)[C@H](CCc2ccc(C(F)(F)F)c(Cl)c2)NC(=O)CN(C)C(=O)[C@H](CC2CCCCC2)N(C)C(=O)CN(C)C(=O)CN(C)C1=O [Compound 2122, (3S,9S,18S,21S,25S,28S,34S,36R)-3-[2-[3-chloro-4-(trifluoromethyl)phenyl]ethyl]-28-cyclohexyl-9-(cyclohexylmethyl)-36-(2-hydroxyethoxy)-21-isobutyl-7,10,13,16,22,26,29-heptamethyl-18-[(1S)-1-methylpropyl]-25-(piperidine-1-carbonyl)spiro[1,4,7,10,13,16,19,22,26,29,32-undecazabicyclo[32.3.0]heptatriacontane-31,1′-cyclopentane]-2,5,8,11,14,17,20,23,27,30,33-undecone] ([NMeL]I[Sar][Sar][NMeCha][Sar][hPhe(3-Cl-4-CF3)][Hyp](Ethyl(2-OH))[Ac5c][NMeChg][NMeD]-Piperidide; lactam N-11) | 0.46 nM
12 | CC[C@H](C)[C@@H]1NC(=O)[C@H](CC(C)C)N(C)C(=O)C[C@@H](C(=O)N2CCCCC2)N(C)C(=O)[C@H](C2CCCCC2)N(C)C(=O)C2(CCCC2)NC(=O)[C@@H]2C[C@H](OCC(F)F)CN2C(=O)[C@H](CCc2ccc(C(F)(F)F)c(Cl)c2)NC(=O)CN(C)C(=O)[C@H](CC2CCCCC2)N(C)C(=O)CN(C)C(=O)CN(C)C1=O [Compound 2123] ([NMeL]I[Sar][Sar][NMeCha][Sar][hPhe(3-Cl-4-CF3)][cisHyp](Ethyl(2,2-F2))[Ac5c][NMeChg][NMeD]-Piperidide; lactam N-11) | 1.5 nM
13 | CC[C@H](C)[C@@H]1NC(=O)[C@H](CC(C)C)N(C)C(=O)C[C@@H](C(=O)N2CCCCC2)N(C)C(=O)[C@H](C2CCCCC2)N(C)C(=O)C2(CCCC2)NC(=O)[C@@H]2C[C@@H](OCc3ccsc3)CN2C(=O)[C@H](CCc2ccc(C(F)(F)F)c(Cl)c2)NC(=O)CN(C)C(=O)[C@H](CC2CCCCC2)N(C)C(=O)CN(C)C(=O)CN(C)C1=O [Compound 2124] ([NMeL]I[Sar][Sar][NMeCha][Sar][hPhe(3-Cl-4-CF3)][Hyp](X14)[Ac5c][NMeChg][NMeD]-Piperidide; lactam N-11) | 0.91 nM
